Measurements: patent US8618063B2, “Method for treating a synucleinopathy” (The Board of Trustees of the University of Illinois, priority 2008, dated 2013)
Entries after “also recorded” stand apart in the source; their conditions may differ. Like-named read-outs stand apart in the source and are kept apart here.

Tests used:
[1] = test system: Src/Fyn effects on fast axonal transport; assay: Isolated axoplasm: blocking of Src/Fyn effects on fast axonal transport; format: cell-based, squid Loligo pealeii; details: for blocking of Src/Fyn actions on fast axonal transport: concentration not given
Experimental: (§1) Axoplasm was extruded from giant axons of the squid Loligo pealeii (Marine Biological Laboratory) according to established methods (Brady, et al. (1985) Cell Motil. 5(2):81-101). Axons were 400-600 μm in diameter and provided ≈5 μl of axoplasm per axon. Wild-type α-synuclein or α-synuclein with point mutations associated with familial Parkinson's disease (Ala30Pro or Ala53Thr), MPP+, enzymes or inhibitors were diluted into X/2 buffer (175 mM potassium aspartate, 65 mM taurine, 35 mM betaine, 25 mM glycine, 10 mM HEPES, 6.5 mM MgCl2, 5 mM EGTA, 1.5 mM CaCl2, 0.5 mM glucose, pH 7.2) supplemented with 2-5 mM ATP and 20 μl of this mix was added to perfusion chambers (Brady, et al. (1985) supra). Preparations were analyzed on a ZEISS AXIOMAT with a 100×, 1.3 na objective, and DIC optics. Hamamatsu Argus 20 and Model 2400 CCD camera were used for image processing and analysis. Organelle velocities were measured with a Photonics Microscopy C2117 video manipulator (Hamamatsu).
Screening of nonreceptor tyrosine kinases included Src- and Abl-family members. […] Given that neither kinesin nor dynein are known to have tyrosine phosphorylations, the ability of a broad spectrum PKC inhibitor Gö6976 was included in the assay to block the action of Fyn. Gö6976 inhibition of PKC abolished actions of Src/Fyn on fast axonal transport (FIG. 1D), as did perfusion of the MARCKS peptide.

[2] = test system: α-synuclein mutant Ala30Pro effects on fast axonal transport; assay: Isolated axoplasm: blocking of mutant α-synuclein (Ala30Pro) effects on fast axonal transport; format: cell-based, squid Loligo pealeii; details: coperfused with α-synuclein mutant Ala30Pro, FIG. 3
Experimental: as §1
Accordingly, these inhibitors were coperfused with pathological α-synuclein mutant Ala30Pro and fast axonal transport was monitored. […] Similarly, the effects of α-synuclein mutant Ala30Pro could be blocked by a PKCmu peptide substrate (FIG. 3B) and an inhibitor of Src-Family Tyrosine Kinases (PP2) (FIG. 3C).

[3] = test system: LB filaments (wild-type α-synuclein) effects on fast axonal transport; assay: Isolated axoplasm: blocking of LB filament effects on fast axonal transport; format: cell-based, squid Loligo pealeii; details: FIG. 4B
Experimental: as §1
Plasmids containing wild-type α-synuclein; Ala30Pro α-synuclein and Ala53Thr α-synuclein for conventional expression in bacteria were used to generate synuclein protein used in axoplasm and squid giant synapse preparations. […] The ability of LB filaments to affect retrograde axonal transport in isolated axoplasm was evaluated, as were the effects of wild-type LB filaments on kinases.

[4] = test system: MPP+ effects on fast axonal transport; assay: Isolated axoplasm: blocking of MPP+ effects on fast axonal transport; format: cell-based, squid Loligo pealeii; details: FIG. 5B
Experimental: as §1
(§2) MPTP/MPP+ is the best characterized example of toxin-induced Parkinson's disease. The effects of MPP+ on fast axonal transport were examined in axoplasm as was dynein phosphorylation in cells. […] Based on reports that MPP+ could activate caspase3 (Turmel, et al. (2001) Mov. Disord. 16:185-9) and that caspase3 can activate a PKC by proteolytic cleavage (Kaul, et al. (2003) Eur. J. Neurosci. 18:1387-401), the ability of a caspase3 inhibitor to block effects of MPP+ on fast axonal transport was evaluated. […] Further, perfusion with Caspase 3 affected retrograde transport in a manner similar to PKC and MPP+ (retrograde transport=1.462±0.016 μm/sec).

phosphorylation of DIC = assay: NGF/BDNF (Trk receptor) induced shift of dynein intermediate chain; format: cell-based; details: Trk neurotrophin receptors; Gö6976 at 100 nM
Description: Specifically, NGF and BDNF binding to Trk neurotrophin receptors caused a shift in the apparent molecular weight of dynein intermediate chain (DIC). To identify the kinase pathway involved in this change, more than 30 different kinase and phosphatase inhibitors were screened.

DIC phosphorylation [5] = assay: Reelin receptor stimulated DIC phosphorylation; format: cell-based
DIC phosphorylation [6] = assay: Labeling studies with MPP+ treated cortical neurons; format: cell-based; details: MPP+ treated cortical neurons
Experimental: One mCi ^32P phosphate (ICN) was added per dish and incubated for 4 hours. Medium was discarded, cells homogenized in 1 ml of ROLB buffer and processed accordingly to standard methods (Morfini, et al. (2004) supra). Axoplasms were prepared as for video microscopy, but 1 mCi of γ-^32P-ATP was added. After 50 minutes incubation, axoplasms were homogenized in ROLB buffer. A 10 μl aliquot of lysate was precipitated with 15% TCA and radioactivity incorporated into protein determined by scintillation counting. Aliquots of equal counts were used for kinesin immunoprecipitation with 10 μg of 74.1 antibody and Protein G-agarose beads (Pierce). Immunoprecipitates were separated by SDS-PAGE, dried and exposed in a PHOSPHORIMAGER cassette, then scanned and quantified on a TYPHOON (Amersham/Molecular Dynamics).
as §2

[7] = test system: Ala30Pro mutant α-synuclein induced failure of neurotransmission; assay: Squid giant synapse: prevention of Ala30Pro α-synuclein induced failure of neurotransmission; format: cell-based; details: co-injection / coperfusion with Ala30Pro α-synuclein
Experimental: If they both work by activating PKC and increasing retrograde transport, they might affect availability of synaptic vesicle components in presynaptic terminals. Accordingly, either wild-type α-synuclein, Ala30Pro α-synuclein, or MPP+ were injected into the presynaptic side of the squid giant synapse as described for synaptic vesicles and synapsin (McGuinness, et al. (1989) J. Neurosci. 9:4138-4149; Llinas, et al. (1989) Proc. Nat. Acad. Sci. USA 86:5656-5660). This preparation has been used to evaluate the effects of reagents on presynaptic function by injecting, then stimulating the presynaptic side while recording intracellularly on both pre- and post-synaptic sides (Llinas, et al. (2004) Proc. Natl. Acad. Sci. USA 101:17855-60; Sugimori, et al. (1998) Neuroscience 86:39-51).

PKCα = PKCα (Homo sapiens, UniProt P17252); details: cited from earlier work
PKCβ = PKCβ (Homo sapiens, UniProt P05771); details: cited from earlier work
PKCγ = PKCγ (Homo sapiens, UniProt P05129); details: cited from earlier work
PKCδ = PKCδ (Homo sapiens, UniProt Q05655); details: cited from earlier work
PKCζ = biological target: T1, PKCζ (Homo sapiens, UniProt Q05513); details: cited from earlier work
T1 sequence (Q05513 1-592): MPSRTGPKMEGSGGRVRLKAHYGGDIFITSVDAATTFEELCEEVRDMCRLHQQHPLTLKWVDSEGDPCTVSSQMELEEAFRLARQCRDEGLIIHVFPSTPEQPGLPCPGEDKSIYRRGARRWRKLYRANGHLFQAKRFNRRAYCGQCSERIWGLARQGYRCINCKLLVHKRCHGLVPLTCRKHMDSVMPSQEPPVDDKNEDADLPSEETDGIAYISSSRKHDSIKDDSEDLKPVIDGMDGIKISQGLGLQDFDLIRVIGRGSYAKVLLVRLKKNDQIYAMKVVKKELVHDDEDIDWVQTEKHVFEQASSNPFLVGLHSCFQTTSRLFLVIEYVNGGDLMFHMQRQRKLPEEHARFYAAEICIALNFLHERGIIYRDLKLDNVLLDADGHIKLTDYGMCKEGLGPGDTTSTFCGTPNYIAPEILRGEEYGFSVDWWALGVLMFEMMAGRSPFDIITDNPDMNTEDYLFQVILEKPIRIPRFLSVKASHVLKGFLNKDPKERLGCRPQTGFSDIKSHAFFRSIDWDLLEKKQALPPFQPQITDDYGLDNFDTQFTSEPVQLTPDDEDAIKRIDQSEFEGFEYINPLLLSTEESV

PKCμ = biological target: T2, PKCμ (Homo sapiens, UniProt Q15139); details: cited from earlier work
T2 sequence (Q15139 1-912): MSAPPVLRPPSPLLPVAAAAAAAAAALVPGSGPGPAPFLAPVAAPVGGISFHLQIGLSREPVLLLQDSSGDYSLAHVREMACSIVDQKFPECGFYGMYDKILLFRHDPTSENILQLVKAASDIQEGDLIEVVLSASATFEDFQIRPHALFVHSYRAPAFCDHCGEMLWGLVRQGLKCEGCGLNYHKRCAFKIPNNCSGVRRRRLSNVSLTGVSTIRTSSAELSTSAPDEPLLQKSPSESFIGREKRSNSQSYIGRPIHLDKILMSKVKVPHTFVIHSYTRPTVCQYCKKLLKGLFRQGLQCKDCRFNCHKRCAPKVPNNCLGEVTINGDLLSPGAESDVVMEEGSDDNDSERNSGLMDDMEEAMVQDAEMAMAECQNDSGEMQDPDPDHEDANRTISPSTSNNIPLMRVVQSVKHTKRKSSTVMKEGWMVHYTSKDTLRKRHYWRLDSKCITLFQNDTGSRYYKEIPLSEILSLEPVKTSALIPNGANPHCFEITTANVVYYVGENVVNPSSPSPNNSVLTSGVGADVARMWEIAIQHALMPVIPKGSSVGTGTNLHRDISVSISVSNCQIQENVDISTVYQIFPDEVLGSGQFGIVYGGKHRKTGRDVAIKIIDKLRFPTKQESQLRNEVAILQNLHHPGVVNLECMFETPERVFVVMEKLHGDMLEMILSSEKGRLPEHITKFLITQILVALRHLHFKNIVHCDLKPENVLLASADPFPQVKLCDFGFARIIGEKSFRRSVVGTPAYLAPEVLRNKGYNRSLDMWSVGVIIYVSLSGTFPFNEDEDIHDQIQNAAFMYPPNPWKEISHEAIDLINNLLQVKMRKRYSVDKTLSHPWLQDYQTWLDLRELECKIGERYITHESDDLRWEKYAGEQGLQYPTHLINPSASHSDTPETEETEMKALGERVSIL

PKD [8] = biological target: T3, PKD (Homo sapiens, UniProt Q15139); details: read-out: PKD autophosphorylation IC50; cited from earlier work
T3 sequence (Q15139 1-912): T2 sequence (Q15139 1-912)

PKD [9] = biological target: T3, PKD; details: read-out: PKD phosphorylation of the exogenous substrate syntide-2 IC50; cited from earlier work
[10] = test system: cPKC-alpha, cPKC-beta, cPKC-gamma, nPKC-delta and nPKC-epsilon, and aPKC-zeta; details: cited from earlier work
fast axonal transport = assay: Motility studies in isolated axoplasm: effect of perfused substance on fast axonal transport; format: cell-based, squid Loligo pealeii; details: substance perfused alone into isolated axoplasm
Experimental: as §1

Chain of PKCδ (Q05655 whole entry): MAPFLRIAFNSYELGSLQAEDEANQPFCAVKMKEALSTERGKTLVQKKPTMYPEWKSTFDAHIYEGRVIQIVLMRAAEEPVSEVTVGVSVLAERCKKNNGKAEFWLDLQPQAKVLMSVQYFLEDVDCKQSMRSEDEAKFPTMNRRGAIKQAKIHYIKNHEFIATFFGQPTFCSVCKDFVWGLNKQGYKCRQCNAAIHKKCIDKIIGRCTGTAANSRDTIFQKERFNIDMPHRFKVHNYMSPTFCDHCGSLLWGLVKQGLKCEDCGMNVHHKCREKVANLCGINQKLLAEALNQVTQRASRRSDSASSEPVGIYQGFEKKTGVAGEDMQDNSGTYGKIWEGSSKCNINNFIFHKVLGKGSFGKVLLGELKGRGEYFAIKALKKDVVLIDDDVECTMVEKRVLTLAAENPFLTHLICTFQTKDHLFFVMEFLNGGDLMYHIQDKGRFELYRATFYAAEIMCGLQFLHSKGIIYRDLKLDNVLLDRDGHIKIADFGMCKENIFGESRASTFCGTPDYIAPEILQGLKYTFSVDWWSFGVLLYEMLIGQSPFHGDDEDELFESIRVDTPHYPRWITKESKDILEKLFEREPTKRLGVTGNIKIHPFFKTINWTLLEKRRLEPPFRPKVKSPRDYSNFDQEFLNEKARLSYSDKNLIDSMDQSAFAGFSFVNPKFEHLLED
Chain of PKCβ (P05771 whole entry, species assumed): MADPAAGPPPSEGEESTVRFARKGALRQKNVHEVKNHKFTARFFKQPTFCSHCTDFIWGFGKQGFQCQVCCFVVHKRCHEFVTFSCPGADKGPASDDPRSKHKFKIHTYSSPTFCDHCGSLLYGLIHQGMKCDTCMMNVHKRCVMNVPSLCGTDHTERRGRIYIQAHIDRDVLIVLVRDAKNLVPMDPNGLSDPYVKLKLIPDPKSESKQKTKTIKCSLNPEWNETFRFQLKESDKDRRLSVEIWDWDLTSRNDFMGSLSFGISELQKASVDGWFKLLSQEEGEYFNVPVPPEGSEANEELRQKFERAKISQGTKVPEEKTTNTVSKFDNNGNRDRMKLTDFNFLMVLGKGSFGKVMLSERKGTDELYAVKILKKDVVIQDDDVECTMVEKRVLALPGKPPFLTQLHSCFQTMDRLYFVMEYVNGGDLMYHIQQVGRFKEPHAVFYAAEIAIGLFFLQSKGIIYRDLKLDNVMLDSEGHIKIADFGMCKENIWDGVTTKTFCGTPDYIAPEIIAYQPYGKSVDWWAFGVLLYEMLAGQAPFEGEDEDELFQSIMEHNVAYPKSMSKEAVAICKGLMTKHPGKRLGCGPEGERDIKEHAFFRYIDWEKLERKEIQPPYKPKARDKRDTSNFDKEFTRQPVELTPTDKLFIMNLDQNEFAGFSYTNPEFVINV

Row | blocking of NGF/BDNF induced shift (phosphorylation) of DIC (phosphorylation of DIC) | Molecule | blocking of Src/Fyn actions on fast axonal transport [1] | blocking of familial Parkinson's disease mutant α-synuclein (Ala30Pro) effects on fast axonal transport [2] | blocking of LB filament (wild-type α-synuclein) effects on fast axonal transport [3] | blocking of MPP+ effects on fast axonal transport [4] | prevention of Ala30Pro α-synuclein effect on neurotransmission [7] | further results
1 | able to block | Cn1c2ccccc2c2c3c(c4c5ccccc5n(CCC#N)c4c21)CNC3=O [Gö6976, 5,6,7,13-Tetrahydro-13-methyl-5-oxo-12H-indolo[2,3-a]pyrrolo[3,4-c]carbazole-12-propanenitrile] | inhibited; also recorded: abolished | effective at blocking; also recorded: prevented | blocked | blocked | prevented | blocking of Fyn effects on fast axonal transport ([1]; 100 nM inhibitor, FIG. 1D): blocked; blocking of Reelin receptor stimulated increase in DIC phosphorylation (DIC phosphorylation [5]): blocked; blocking of MPP+ induced increase in DIC phosphorylation (DIC phosphorylation [6]): blocked
2 | failed to block | COc1ccc2c(c1)c(C1=C(c3c[nH]c4ccccc34)C(=O)NC1=O)cn2CCCN(C)C [Gö6983] | did not block | ineffective; also recorded: not effective | – | blocked | not effective | IC50 (PKCα): 7 nM; IC50 (PKCβ): 7 nM; IC50 (PKCγ): 6 nM; IC50 (PKCδ): 10 nM; IC50 (PKCζ): 60 nM; IC50 (PKCμ): 20000 nM
3 | – | CC(C)(C)n1nc(-c2ccc(Cl)cc2)c2c(N)ncnc21 [PP2, 4-amino-5-(4-chlorophenyl)-7-(t-butyl) pyrazolo[3,4-d-]pyrimidine] | – | effective at blocking; also recorded: blocked | blocked | did not | prevented | –
4 | – | Oc1ccc(C=Cc2cc(O)cc(O)c2)cc1 [resveratrol] | – | – | – | – | – | IC50 (PKD [8]): 52000 nM; IC50 (PKD [9]): 36000 nM; effects against the autophosphorylation reactions of PKC isozyme subfamily members [10]: negligible effects
5 | – | Fyn: Src-Family nonreceptor tyrosine kinase perfused into axoplasm | – | – | – | – | – | effect on fast axonal transport (retrograde RT / anterograde AT), in words (fast axonal transport): indistinguishable from the effects of PKCs; also recorded: a rapid increase in the amount and rate of retrograde transport accompanied by a slow decline in anterograde transport
